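GI50 marks 50% less growth. Definition used: TGI = concentration required for complete inhibition of growth.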
Assays:
Test in all cases: growth of human tumour cells (NCI), 384-well format
CCRF-CEM leukemia = test system: CCRF-CEM leukemia
HS 578T breast = test system: HS 578T breast
K-562 leukemia = test system: K-562 leukemia
KM12 colon = test system: KM12 colon
MDA-MB-435 melanoma = test system: MDA-MB-435 melanoma
MDA-MB-468 breast = test system: MDA-MB-468 breast
NCI-H522 lung = test system: NCI-H522 lung
OVCAR-4 ovarian = test system: OVCAR-4 ovarian
RPMI-8226 leukemia = test system: RPMI-8226 leukemia
SNB-75 CNS = test system: SNB-75 CNS
SR leukemia = test system: SR leukemia
SW-620 colon = test system: SW-620 colon
TK-10 renal = test system: TK-10 renal

Structure (SMILES): CCN(CC)CCNC(=O)c1c(C)[nH]c(/C=C2\C(=O)Nc3ccc(F)cc32)c1C
- GI50 (CCRF-CEM leukemia): 1.58 µM
- TGI (CCRF-CEM leukemia): 2.94 µM
- GI50 (HS 578T breast): 1.86 µM
- TGI (HS 578T breast): 3.73 µM
- GI50 (K-562 leukemia): 1.35 µM
- TGI (K-562 leukemia): 2.66 µM
- GI50 (KM12 colon): 0.0426 µM
- TGI (KM12 colon): 4.7 µM
- GI50 (MDA-MB-435 melanoma): 2.45 µM
- TGI (MDA-MB-435 melanoma): 6.53 µM
- GI50 (MDA-MB-468 breast): 2.94 µM
- TGI (MDA-MB-468 breast): 5.41 µM
- GI50 (NCI-H522 lung): 2.22 µM
- TGI (NCI-H522 lung): 6.49 µM
- GI50 (OVCAR-4 ovarian): 3.93 µM
- TGI (OVCAR-4 ovarian): 8.44 µM
- GI50 (RPMI-8226 leukemia): 1.38 µM
- TGI (RPMI-8226 leukemia): 2.78 µM
- GI50 (SNB-75 CNS): 3.67 µM
- TGI (SNB-75 CNS): 8.24 µM
- GI50 (SR leukemia): 1.81 µM
- TGI (SR leukemia): 3.24 µM
- GI50 (SW-620 colon): 1.7 µM
- TGI (SW-620 colon): 4.29 µM
- GI50 (TK-10 renal): 3.11 µM
- TGI (TK-10 renal): 8.02 µM

Reference: PubChem BioAssay (NCI)
